The record followed here is patent US11999716B2, “WDR5 inhibitors and modulators” (priority 2018, dated 2024).

SMILES strings stand for the structures.

This test deals with MV4:11 human cancer cell lines. In words: Cellular viability / anti-proliferative activity, CellTiter-Glo, 5 day protocol. The following applies: Homo sapiens, MV4-11, 120 h, MV4:11 cells; 5 day incubation; CellTiter-Glo; mean of minimum two replicates; read-out: GI50 on cellular proliferation of MV4:11 human cancer cell lines. The class given is cell-based. The procedure, abridged: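 Compounds were tested over 22 two-fold dilutions starting at 30 μM in 0.3% DMSO, with 200 cells per well (7200 cells/mL). Viability was measured by CellTiter-Glo luminescence at day 5.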

On to `CCn1cc(-c2cc(Cn3ccoc3=N)cc3c2CCN(Cc2cn(C)nc2C)C3=O)c(C(F)(F)F)n1` [Example 97, 2-((1,3-Dimethyl-1H-pyrazol-4-yl)methyl)-5-(1-ethyl-3-(trifluoromethyl)-1H-pyrazol-4-yl)-7-((2-iminooxazol-3(2H)-yl)methyl)-3,4-dihydroisoquinolin-1(2H)-one], for which the GI50 is 0.212 µM.
For `COc1cc(CN2CCc3c(cc(Cn4cnn(C)c4=N)cc3-c3cn(C)nc3C(F)(F)F)C2=O)cc(OC)c1` [Example 122, 2-(3,5-Dimethoxybenzyl)-7-((5-imino-1-methyl-1,5-dihydro-4H-1,2,4-triazol-4-yl)methyl)-5-(1-methyl-3-(trifluoromethyl)-1H-pyrazol-4-yl)-3,4-dihydroisoquinolin-1(2H)-one], the GI50 is under 0.05 µM.
To `COc1ccnc(CN2CCc3c(cc(Cn4ccnc4C4CC4)cc3-c3cn(C)nc3C)C2=O)c1` [Example 9, 7-((2-Cyclopropyl-1H-imidazol-1-yl)methyl)-5-(1,3-dimethyl-1H-pyrazol-4-yl)-2-((4-methoxypyridin-2-yl)methyl)-3,4-dihydroisoquinolin-1(2H)-one] belongs 0.553 µM; to `COc1ccnc([C@H](C)N2CCc3c(cc(Cn4ccnc4C)cc3-c3c[nH]nc3C)C2=O)c1` [Example 238, (S)-2-(1-(4-methoxypyridin-2-yl)ethyl)-7-((2-methyl-1H-imidazol-1-yl)methyl)-5-(3-methyl-1H-pyrazol-4-yl)-3,4-dihydroisoquinolin-1(2H)-one], 0.227 µM; to `COc1ccnc([C@H](C)N2CCc3c(cc(Cn4ccnc4C)cc3-c3cccnc3C)C2=O)c1` [Example 202, (S)-2-(1-(4-Methoxypyridin-2-yl)ethyl)-7-((2-methyl-1H-imidazol-1-yl)methyl)-5-(2-methylpyridin-3-yl)-3,4-dihydroisoquinolin-1(2H)-one], 0.23 µM.
On to `COc1ccnc(CN2CCc3c(cc(Cn4ccnc4C)cc3-c3cc(F)cnc3C)C2=O)c1` [Example 229, 5-(5-Fluoro-2-methylpyridin-3-yl)-2-((4-methoxypyridin-2-yl)methyl)-7-((2-methyl-1H-imidazol-1-yl)methyl)-3,4-dihydroisoquinolin-1(2H)-one], for which the GI50 was determined as 1.05 µM.
In the case of `Cc1nccn1Cc1cc2c(c(-c3cn(C)nc3C(F)(F)F)c1)CCN(Cc1cc(C3CC3)nn1C)C2=O` [Example 148, 2-((3-Cyclopropyl-1-methyl-1H-pyrazol-5-yl)methyl)-7-((2-methyl-1H-imidazol-1-yl)methyl)-5-(1-methyl-3-(trifluoromethyl)-1H-pyrazol-4-yl)-3,4-dihydroisoquinolin-1(2H)-one], the GI50 is under 0.05 µM.
For `Cc1nccn1Cc1cc2c(c(-c3cn(C)nc3C(F)(F)F)c1)CCN([C@@H](C)c1cc(C3CC3)nn1C)C2=O` [Example 239, (S)-2-(1-(3-Cyclopropyl-1-methyl-1H-pyrazol-5-yl)ethyl)-7-((2-methyl-1H-imidazol-1-yl)methyl)-5-(1-methyl-3-(trifluoromethyl)-1H-pyrazol-4-yl)-3,4-dihydroisoquinolin-1(2H)-one] the value was 0.573 µM; for `COc1cc(CN2CCc3c(cc(Cn4cnnc4C)cc3-c3ccc(F)cc3C)C2=O)cc(OC)c1` [Example 145, 2-(3,5-Dimethoxybenzyl)-5-(4-fluoro-2-methylphenyl)-7-((3-methyl-4H-1,2,4-triazol-4-yl)methyl)-3,4-dihydroisoquinolin-1(2H)-one], over 0.938 µM; for `Cc1nccn1Cc1ccc2c(c1)C(=O)N(Cc1cc(Cl)cc(Cl)c1)CC2` [Example 2, 2-(3,5-Dichlorobenzyl)-7-((2-methyl-1H-imidazol-1-yl)methyl)-3,4-dihydroisoquinolin-1(2H)-one], over 0.938 µM.
Take `COc1cc(CN2CCc3c(cc(Cn4ccn(C)c4=N)cc3-c3ccc(C)nc3C)C2=O)cc(OC)c1` [Example 68, 2-(3,5-Dimethoxybenzyl)-5-(2,6-dimethylpyridin-3-yl)-7-((2-imino-3-methyl-2,3-dihydro-1H-imidazol-1-yl)methyl)-3,4-dihydroisoquinolin-1(2H)-one]: the GI50 stood at 0.333 µM.
For `Cc1cnnc(CN2CCc3c(cc(Cn4ccnc4C)cc3-c3cn(C)nc3C(F)(F)F)C2=O)c1` [Example 232, 7-((2-Methyl-1H-imidazol-1-yl)methyl)-5-(1-methyl-3-(trifluoromethyl)-1H-pyrazol-4-yl)-2-((5-methylpyridazin-3-yl)methyl)-3,4-dihydroisoquinolin-1(2H)-one] the value was 0.199 µM; for `COc1ccnc(CN2CCc3c(cc(Cn4ccn(C5CC5)c4=N)cc3-c3cn(C)nc3C)C2=O)c1` [Example 48], 0.423 µM; for `CCn1cc(-c2cc(Cn3ccoc3=N)cc3c2CCN([C@@H](C)c2cc(OC)ccn2)C3=O)c(C(F)(F)F)n1` [Example 91, (S)-5-(1-Ethyl-3-(trifluoromethyl)-1H-pyrazol-4-yl)-7-((2-iminooxazol-3(2H)-yl)methyl)-2-(1-(4-methoxypyridin-2-yl)ethyl)-3,4-dihydroisoquinolin-1(2H)-one], under 0.05 µM.
To `Cc1cc(C)nc([C@@H](C)N2CCc3c(cc(Cn4ccnc4C)cc3-c3cn(C)nc3C(F)(F)F)C2=O)c1` [Example 166, (R)-2-(1-(4,6-Dimethylpyridin-2-yl)ethyl)-7-((2-methyl-1H-imidazol-1-yl)methyl)-5-(1-methyl-3-(trifluoromethyl)-1H-pyrazol-4-yl)-3,4-dihydroisoquinolin-1(2H)-one] belongs 0.089 µM.
In the case of `COc1ccnc(CN2CCc3c(cc(Cn4cnsc4=N)cc3-c3cn(C)nc3C(F)(F)F)C2=O)c1` [Example 130, 7-((5-Imino-1,2,4-thiadiazol-4(5H)-yl)methyl)-2-((4-methoxypyridin-2-yl)methyl)-5-(1-methyl-3-(trifluoromethyl)-1H-pyrazol-4-yl)-3,4-dihydroisoquinolin-1(2H)-one], the GI50 is 0.845 µM.
Take `Cc1nccn1Cc1cc2c(c(-c3cn(C)nc3C(F)(F)F)c1)CCN(Cc1ccccc1)C2=O` [Example 233, 2-Benzyl-7-((2-methyl-1H-imidazol-1-yl)methyl)-5-(1-methyl-3-(trifluoromethyl)-1H-pyrazol-4-yl)-3,4-dihydroisoquinolin-1(2H)-one]: the GI50 was 0.748 µM.
As for `CCn1cc(-c2cc(CN3CCOC3=N)cc3c2CCN(Cc2cn(C)nc2C)C3=O)c(C(F)(F)F)n1` [Example 98, 2-((1,3-Dimethyl-1H-pyrazol-4-yl)methyl)-5-(1-ethyl-3-(trifluoromethyl)-1H-pyrazol-4-yl)-7-((2-iminooxazolidin-3-yl)methyl)-3,4-dihydroisoquinolin-1(2H)-one], the GI50 worked out at 0.207 µM.
As for `Cc1cc([C@H](C)N2CCc3c(cc(CNc4cccc(=O)[nH]4)cc3-c3cn(C)nc3C(F)(F)F)C2=O)ccc1F` [Example 142, (S)-2-(1-(4-Fluoro-3-methylphenyl)ethyl)-5-(1-methyl-3-(trifluoromethyl)-1H-pyrazol-4-yl)-7-(((6-oxo-1,6-dihydropyridin-2-yl)amino)methyl)-3,4-dihydroisoquinolin-1(2H)-one], the GI50 is over 0.938 µM.
For `COc1ccnc(CN2CCc3c(cc(CNc4nnc5ccccn45)cc3-c3cn(C)nc3C(F)(F)F)C2=O)c1` [Example 135, 7-(([1,2,4]Triazolo[4,3-a]pyridin-3-ylamino)methyl)-2-((4-methoxypyridin-2-yl)methyl)-5-(1-methyl-3-(trifluoromethyl)-1H-pyrazol-4-yl)-3,4-dihydroisoquinolin-1(2H)-one] the value was over 0.938 µM; for `CCn1cc(-c2cc(Cn3ccn(C(F)F)c3=N)cc3c2CCN([C@@H](C)c2cc(OC)ccn2)C3=O)c(C(F)(F)F)n1` [Example 67, (S)-7-((3-(Difluoromethyl)-2-imino-2,3-dihydro-1H-imidazol-1-yl)methyl)-5-(1-ethyl-3-(trifluoromethyl)-1H-pyrazol-4-yl)-2-(1-(4-methoxypyridin-2-yl)ethyl)-3,4-dihydroisoquinolin-1(2H)-one], under 0.05 µM; for `COc1ccnc(CN2CCc3c(cc(CNC4=NCCO4)cc3-c3cn(C)nc3C)C2=O)c1` [Example 134, 7-(((4,5-Dihydrooxazol-2-yl)amino)methyl)-5-(1,3-dimethyl-1H-pyrazol-4-yl)-2-((4-methoxypyridin-2-yl)methyl)-3,4-dihydroisoquinolin-1(2H)-one], over 0.938 µM.
For `Cc1ccnc([C@H](C2CC2)N2CCc3c(cc(Cn4ccn(C)c4=N)cc3-c3cccnc3C(F)(F)F)C2=O)c1` [Example 36, (S)-2-(Cyclopropyl(4-methylpyridin-2-yl)methyl)-7-((2-imino-3-methyl-2,3-dihydro-1H-imidazol-1-yl)methyl)-5-(2-(trifluoromethyl)pyridin-3-yl)-3,4-dihydroisoquinolin-1(2H)-one] the value was 0.201 µM; for `CCc1ccnc(CN2CCc3c(cc(Cn4ccnc4CC)cc3-c3cn(CC)nc3C(F)(F)F)C2=O)c1` [Example 149, 7-((2-Ethyl-1H-imidazol-1-yl)methyl)-5-(1-ethyl-3-(trifluoromethyl)-1H-pyrazol-4-yl)-2-((4-ethylpyridin-2-yl)methyl)-3,4-dihydroisoquinolin-1(2H)-one], under 0.05 µM.
`COc1cc(CN2CCc3c(cc(CN4CCCC4=N)cc3-c3cn(C)nc3C(F)(F)F)C2=O)cc(OC)c1` [Example 109, 2-(3,5-Dimethoxybenzyl)-7-((2-iminopyrrolidin-1-yl)methyl)-5-(1-methyl-3-(trifluoromethyl)-1H-pyrazol-4-yl)-3,4-dihydroisoquinolin-1(2H)-one]: the GI50 was found to be 0.104 µM.
Turning to `Cc1nccn1Cc1cc2c(c(-c3cn(C)nc3C(F)(F)F)c1)CCN(Cc1cn(C(C)C)c3ccccc13)C2=O` [Example 193, 2-((1-Isopropyl-1H-indol-3-yl)methyl)-7-((2-methyl-1H-imidazol-1-yl)methyl)-5-(1-methyl-3-(trifluoromethyl)-1H-pyrazol-4-yl)-3,4-dihydroisoquinolin-1(2H)-one], the GI50 came out at 2.33 µM.
